Patent publication US11814416B2, “Polypeptide capable of passing through blood-brain barrier” (SHENZHEN RUIJIAN […] COMPANY, priority 2018, dated 2023)
Read-outs that look alike come from different tables or passages of the source.

Tested on: CaV2.2 channels (α1B, α2δ1 and β3)
Type: cell-based, Rat
Settings: for IC50: read-out: half inhibitory concentration for inhibition of CaV2.2 channel

| Sequence | reduction of the peak Ca2+ current (1 μM) | IC50 | reduction of the peak Ca2+ current |
| --- | --- | --- | --- |
| CKGKGAKCSRLMYDCCTGSCRSGKCGGGYGRKKRRQRRR [MVIIA-d] | 84.26±3.127% | 345 nM |  |
| CKGKGAKCSRLMYDCCTGSCRSGKCGGYGRKKRRQRRR [MVIIA-c] | 98.81±0.427% | 237 nM |  |
| CKGKGAKCSRLMYDCCTGSCRSGKCGYGRKKRRQRRR [MVIIA-b] |  | 379 nM | 91.70±1.477% |
| CKGKGAKCSRLMYDCCTGSCRSGKCYGRKKRRQRRR [MVIIA-a] | 89.45±0.752% | 413 nM |  |
